# Where a name gives a salt, the structure may show the parent alone.
# Molecular target: T1, human Kv1.1/Kvβ1 potassium ion channel complex (Homo sapiens, UniProt Q09470)
# T1 construct: expressed in transfected cells; host or cells: Xenopus oocytes injected with cRNA
# Assay: Xenopus oocytes current assay (inhibition of inactivation, voltage clamp)
# Assay type: cell-based
# Settings: Xenopus oocytes expressing hKv1.1/hKvβ1, relative to control bath solution
# Method: The compounds of formula I were examined for their ability to inhibit the inactivation of the human Kv1.1/Kvβ1 potassium ion channel complex in vitro using electrophysiological current recordings on inactivating Kv1.1/Kvβ1 channels expressed in Xenopus oocytes. Xenopus oocytes were harvested from frogs under general anesthesia using aseptic techniques. Oocytes were treated with 2 mg/ml collagenase for 1–1.5 hr, defolliculated, and injected with 40 nL cRNA (a mixture of hky1.1 and hKvβ1) produced using standard molecular biological techniques (Sambrook, et al., 1989, Molecular Cloning: A Laboratory Manual). The concentration of hKv1.1/hKvp1 cRNA varies, but was generally about 50 ng/μL hKv1.1 and […] hKβ1.
# Currents were recorded using standard voltage clamp amplifiers at room temperature. Recordings were performed in the bath solution “ND-96” containing 96 mM NaCl, 2 mM KCl, 1 mm CaCl2, 1 mM MgCl2, 10 mM HEPES and […] Gentamycin (pH=7.6). The pipette (electrode) solution generally consisted of […]. Electrodes were made from WPI TW150F-4 borosilicate glass (or equivalent) and typically had resistances of 0.5–1.5 Mohms. The standard current-voltage (IV) pulse protocol consisted of voltage steps from −60 mV to +50 mV, in 10 mV increments for 200 ms, at a frequency of one IV set per 2 minutes. Data were digitized and analyzed by standard software packages.
# Solutions of the test compounds consisting of test compounds dissolved in bath solution were applied by bath perfusion using gravity or pump-driven flow. A minimum of 2 mL (10 times the bath volume) over 3 minutes were flowed for each compound concentration tested. Data were averaged across at least 3 cells tested for each concentration.
# Test compounds were examined for their ability to inhibit the inactivation of the steady state portion of the IV curve.
# T1 sequence (Q09470 whole entry, one chain of several): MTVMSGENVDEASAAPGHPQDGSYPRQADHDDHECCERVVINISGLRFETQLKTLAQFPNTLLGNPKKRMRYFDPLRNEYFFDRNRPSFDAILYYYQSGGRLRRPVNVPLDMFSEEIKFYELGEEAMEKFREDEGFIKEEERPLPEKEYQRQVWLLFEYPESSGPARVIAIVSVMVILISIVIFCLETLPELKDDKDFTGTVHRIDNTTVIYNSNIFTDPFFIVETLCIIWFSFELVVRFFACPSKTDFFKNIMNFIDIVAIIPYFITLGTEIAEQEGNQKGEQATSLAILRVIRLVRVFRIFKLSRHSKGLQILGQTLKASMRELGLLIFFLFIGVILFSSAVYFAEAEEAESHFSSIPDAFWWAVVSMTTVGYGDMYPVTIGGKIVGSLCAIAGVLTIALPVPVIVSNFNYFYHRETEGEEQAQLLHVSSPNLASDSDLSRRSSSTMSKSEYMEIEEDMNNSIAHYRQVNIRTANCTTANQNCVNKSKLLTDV
row,Percent Increase in Steady State Current Of human Kv1.1/Kvβ1 @ a concentration of 50 μM [%],SMILES
1,28,O=C(Nc1ccc(Cl)c(Cl)c1)C1C(=O)C2CCC(C2)C1=O (stereo not shown) [Example 24]

# Same assay, conditions: Xenopus oocytes expressing hKv1.1/hKvβ1, relative to control bath solution, read-out: Percent Increase in Steady State Current Of human Kv1.1/Kvβ1 @ a concentration of 50 μM
row,SMILES,activation at 50 µM [%]
1,"CN(C)c1ccc(NC(=O)C2C(=O)C3CC[C@](C)(C2=O)C3(C)C)cc1 (stereo partly drawn) [Example 9, (1S)-N-[4-(dimethylamino)phenyl]-1,8,8-trimethyl-2,4-dioxobicyclo[3.2.1] octane-3-carboxamide]",27
2,"CC1(C)C2CC1C(=O)C(C(=O)Nc1ccc(C(F)(F)F)cc1)C2=O (stereo not shown) [Example 28, 6,6-Dimethyl-2,4-dioxo-N-[4-(trifluoromethyl)phenyl]bicyclo[3.1.1]heptane-3-carboxamide]",190
3,"CC1(C)C2CC1C(=O)C(C(=O)Nc1cccc(C(F)(F)F)c1)C2=O (stereo not shown) [Example 29, 6,6-Dimethyl-2,4-dioxo-N-[3-(trifluoromethyl)phenyl]bicyclo[3.1.1]heptane-3-carboxamide]",67
4,"CC1(C)C2CC1C(=O)C(C(=O)Nc1ccc(F)c(Cl)c1)C2=O (stereo not shown) [Example 30, 6,6-Dimethyl-2,4-dioxo-N-(3-chloro-4-fluorophenyl)bicyclo[3.1.1]heptane-3-carboxamide]",124
5,"CC1(C)C2CC1C(=O)C(C(=O)Nc1ccc(F)c(C(F)(F)F)c1)C2=O (stereo not shown) [Example 31, 6,6-Dimethyl-2,4-dioxo-N-[4-fluoro-3 (trifluoromethyl)phenyl]bicyclo[3.1.1]heptane-3-carboxamide]",282
6,"CC1(C)C2CC1C(=O)C(C(=O)Nc1ccc(Cl)c(Cl)c1)C2=O (stereo not shown) [Example 32, 6,6-Dimethyl-2,4-dioxo-N-(3,4-dichlorophenyl)bicyclo[3.1.1]heptane-3-carboxamide]",311
7,"CC1(C)C2CC1C(=O)C(C(=O)Nc1cc(Cl)cc(Cl)c1)C2=O (stereo not shown) [Example 33, 6,6-Dimethyl-2,4-dioxo-N-(3,5-dichlorophenyl)bicyclo[3.1.1]heptane-3-carboxamide]",326
8,"CC1(C)C2CC1C(=O)C(C(=O)Nc1ccc(F)cc1)C2=O (stereo not shown) [Example 34, 6,6-Dimethyl-2,4-dioxo-N-(4-fluorophenyl)bicyclo[3.1.1]heptane-3-carboxamide]",94
9,"CC1(C)C2CC1C(=O)C(C(=O)Nc1cccc(Cl)c1)C2=O (stereo not shown) [Example 35, 6,6-Dimethyl-2,4-dioxo-N-(3-chlorophenyl)bicyclo[3.1.1]heptane-3-carboxamide]",107
10,"CC1(C)C2CC1C(=O)C(C(=O)Nc1ccc(Cl)cc1)C2=O (stereo not shown) [Example 36, 6,6-Dimethyl-2,4-dioxo-N-(4-chlorophenyl)bicyclo[3.1.1]heptane-3-carboxamide]",125

# Next, values leading:
row,activation at 50 µM [%],SMILES
1,16,"CC1(C)C2CC[C@]1(C)C(=O)C(C(=O)Nc1cc(C(F)(F)F)cc(C(F)(F)F)c1)C2=O (stereo partly drawn) [Example 1, (1S)-N-[3,5-bis(trifluoromethyl)phenyl]-1,8,8-trimethyl-2,4-dioxobicyclo[3.2.1] octane-3-carboxamide]"
2,11,"CC1(C)C2CC[C@]1(C)C(=O)C(C(=O)Nc1ccc(Cl)c(Cl)c1)C2=O (stereo partly drawn) [Example 4, (1S)-N-(3,4-dichlorophenyl)-1,8,8-trimethyl-2,4-dioxobicyclo[3.2.1]octane-3-carboxamide]"
3,53,"CC1(C)C2CC[C@]1(C)C(=O)C(C(=O)Nc1ccc(C(F)(F)F)cc1)C2=O (stereo partly drawn) [Example 8, (1S)-N-[4-(trifluoromethyl)phenyl]-1,8,8-trimethyl-2,4-dioxobicyclo[3.2.1] octane-3-carboxamide]"
4,68,"O=C(Nc1cc(C(F)(F)F)cc(C(F)(F)F)c1)C1C(=O)C2CCC(CC2)C1=O (stereo not shown) [Example 37, N-[3,5-bis(trifluoromethyl)phenyl]-2,4-dioxobicyclo[3.2.2]nonane-3-carboxamide]"

# Test system: not given
# Assay: not given
# Settings: not given
row,SMILES,melting point [°C]
1,"O=C(Nc1ccc(C(F)(F)F)cc1)C1C(=O)C2CCC(C2)C1=O (stereo not shown) (as salt: sodium) [Example 26, N-[4-(trifluoromethyl)phenyl]-2,4-dioxobicyclo[3.2.1]octane-3-carboxamide]",250 to 260
2,"CC1(C)C2CC1C(=O)C(C(=O)Nc1ccc(C(F)(F)F)cc1)C2=O (stereo not shown) (as salt: sodium) [Example 28, 6,6-Dimethyl-2,4-dioxo-N-[4-(trifluoromethyl)phenyl]bicyclo[3.1.1]heptane-3-carboxamide]",> 230
3,"CC1(C)C2CC1C(=O)C(C(=O)Nc1cccc(C(F)(F)F)c1)C2=O (stereo not shown) (as salt: sodium) [Example 29, 6,6-Dimethyl-2,4-dioxo-N-[3-(trifluoromethyl)phenyl]bicyclo[3.1.1]heptane-3-carboxamide]",> 230
4,"CC1(C)C2CC1C(=O)C(C(=O)Nc1ccc(F)c(Cl)c1)C2=O (stereo not shown) (as salt: sodium) [Example 30, 6,6-Dimethyl-2,4-dioxo-N-(3-chloro-4-fluorophenyl)bicyclo[3.1.1]heptane-3-carboxamide]",> 230
5,"CC1(C)C2CC1C(=O)C(C(=O)Nc1ccc(F)c(C(F)(F)F)c1)C2=O (stereo not shown) (as salt: sodium) [Example 31, 6,6-Dimethyl-2,4-dioxo-N-[4-fluoro-3 (trifluoromethyl)phenyl]bicyclo[3.1.1]heptane-3-carboxamide]",> 230
6,"CC1(C)C2CC1C(=O)C(C(=O)Nc1ccc(Cl)c(Cl)c1)C2=O (stereo not shown) (as salt: sodium) [Example 32, 6,6-Dimethyl-2,4-dioxo-N-(3,4-dichlorophenyl)bicyclo[3.1.1]heptane-3-carboxamide]",> 230
7,"CC1(C)C2CC1C(=O)C(C(=O)Nc1cc(Cl)cc(Cl)c1)C2=O (stereo not shown) (as salt: sodium) [Example 33, 6,6-Dimethyl-2,4-dioxo-N-(3,5-dichlorophenyl)bicyclo[3.1.1]heptane-3-carboxamide]",> 230
8,"CC1(C)C2CC1C(=O)C(C(=O)Nc1ccc(F)cc1)C2=O (stereo not shown) (as salt: sodium) [Example 34, 6,6-Dimethyl-2,4-dioxo-N-(4-fluorophenyl)bicyclo[3.1.1]heptane-3-carboxamide]",> 230
9,"CC1(C)C2CC1C(=O)C(C(=O)Nc1cccc(Cl)c1)C2=O (stereo not shown) (as salt: sodium) [Example 35, 6,6-Dimethyl-2,4-dioxo-N-(3-chlorophenyl)bicyclo[3.1.1]heptane-3-carboxamide]",> 230
10,"CC1(C)C2CC1C(=O)C(C(=O)Nc1ccc(Cl)cc1)C2=O (stereo not shown) (as salt: sodium) [Example 36, 6,6-Dimethyl-2,4-dioxo-N-(4-chlorophenyl)bicyclo[3.1.1]heptane-3-carboxamide]",> 230
11,"CN(C)c1ccc(NC(=O)C2C(=O)C3CC[C@](C)(C2=O)C3(C)C)cc1 (stereo partly drawn) [Example 9, (1S)-N-[4-(dimethylamino)phenyl]-1,8,8-trimethyl-2,4-dioxobicyclo[3.2.1] octane-3-carboxamide]",93 to 95

# The next lines start with the values.
row,melting point [°C],SMILES
1,286 to 288,"O=C(Nc1cc(C(F)(F)F)cc(C(F)(F)F)c1)C1C(=O)C2CCC(CC2)C1=O (stereo not shown) (as salt: sodium) [Example 37, N-[3,5-bis(trifluoromethyl)phenyl]-2,4-dioxobicyclo[3.2.2]nonane-3-carboxamide]"
2,68 to 72,"CC1(C)C2CC[C@]1(C)C(=O)C(C(=O)Nc1cc(C(F)(F)F)cc(C(F)(F)F)c1)C2=O (stereo partly drawn) [Example 1, (1S)-N-[3,5-bis(trifluoromethyl)phenyl]-1,8,8-trimethyl-2,4-dioxobicyclo[3.2.1] octane-3-carboxamide]"
3,112 to 114,"CC1(C)C2CC[C@]1(C)C(=O)C(C(=O)Nc1cc(Cl)cc(Cl)c1)C2=O (stereo partly drawn) [Example 3, (1S)-N-(3,5-dichlorophenyl)-1,8,8-trimethyl-2,4-dioxobicyclo[3.2.1]octane-3-carboxamide]"
4,88 to 90,"CC1(C)C2CC[C@]1(C)C(=O)C(C(=O)Nc1ccc(Cl)c(Cl)c1)C2=O (stereo partly drawn) [Example 4, (1S)-N-(3,4-dichlorophenyl)-1,8,8-trimethyl-2,4-dioxobicyclo[3.2.1]octane-3-carboxamide]"
5,100 to 102,"CC1(C)C2CC[C@]1(C)C(=O)C(C(=O)Nc1cccc([N+](=O)[O-])c1)C2=O (stereo partly drawn) [Example 5, (1S)-N-(3-nitrophenyl)-1,8,8-trimethyl-2,4-dioxobicyclo[3.2.1]octane-3-carboxamide]"
6,170 to 172,"CC1(C)C2CC[C@]1(C)C(=O)C(C(=O)Nc1ccc([N+](=O)[O-])cc1)C2=O (stereo partly drawn) [Example 6, (1S)-N-(4-nitrophenyl)-1,8,8-trimethyl-2,4-dioxobicyclo[3.2.1]octane-3-carboxamide]"
7,118 to 120,"CC1(C)C2CC[C@]1(C)C(=O)C(C(=O)Nc1ccc(Cl)c(C(F)(F)F)c1)C2=O (stereo partly drawn) [Example 7, (1S)-N-[4-chloro-3-(trifluoromethyl)phenyl]-1,8,8-trimethyl-2,4-dioxobicyclo [3.2.1]octane-3-carboxamide]"
8,81 to 83,"CC1(C)C2CC[C@]1(C)C(=O)C(C(=O)Nc1ccc(C(F)(F)F)cc1)C2=O (stereo partly drawn) [Example 8, (1S)-N-[4-(trifluoromethyl)phenyl]-1,8,8-trimethyl-2,4-dioxobicyclo[3.2.1] octane-3-carboxamide]"
9,80 to 82,"Cc1ccc(NC(=O)C2C(=O)C3CC[C@](C)(C2=O)C3(C)C)cc1 (stereo partly drawn) [Example 11, (1S)-N-[4-methylphenyl]-1,8,8-trimethyl-2,4-dioxobicyclo[3.2.1]octane-3-carboxamide]"
10,89 to 91,"CC1(C)C2CC[C@@]1(C)C(=O)C(C(=O)Nc1ccc(Cl)c(Cl)c1)C2=O (stereo partly drawn) [Example 14, (1R)-N-(3,4-dichlorophenyl)-1,8,8-trimethyl-2,4-dioxobicyclo[3.2.1]octane-3-carboxamide]"
11,66 to 68,"CC1(C)C2CC[C@@]1(C)C(=O)C(C(=O)Nc1cccc(C(F)(F)F)c1)C2=O (stereo partly drawn) [Example 17, (1R)-N-[3-(trifluoromethyl)phenyl]-1,8,8-trimethyl-2,4-dioxobicyclo[3.2.1] octane-3-carboxamide]"
